According to patent publication US5496809A, “Stable solutions of rebeccamycin analog” (priority 1989, dated 1996):
Counter-ions that a name gives are not always drawn. Like-named read-outs stand apart in the source and are kept apart here. Values belong to the compound of their own block, whether it stands above or below them.

How the values were obtained:
Solubility in water = format: physicochemical
Excerpt: The compound is referred to in Kaneko et al U.S. Pat. No. 4,785,085 as 6-(2-diethylaminoethyl)rebeccmycin and its preparation is described in Example 1 of the patent and its effectiveness to inhibit growth of tumors in experimental animal systems is shown in Table 3 of the patent. […] Instead, it forms a suspension.
Besides being stable at room temperature, the solutions herein have enhanced solubility at low temperatures, e.g., refrigeration temperatures or cold conditions encountered during shipping or storage, etc.
Pharmaceutically acceptable acid components (c) which meet this solubility criterion include, for example, L-(+)-tartaric, D,L-malic, L-(-)-malic, citric, L-(+)-lactic, lactobionic, methanesulfonic, phosphoric, pyroglutamic, succinic and sulfuric acids. The most preferred acid of these is L-(+)-tartaric acid.

[1] = tested on: transplanted mouse leukemia P-338
Excerpt: (§1) The screening procedures involved administration of test compound intraperitonially (IP) to CDF1 female mice (18 to 22 grams) infected with 1×10^6 ascites cells intraperitonially, and intravenously (IV) to CDF1 female mice (18 to 22 Grams) infected with 1×10 ascites cells intravenously. Drug therapy was started on Day 1 (date of implant) and consisted of 1 injection per day for 5 successive days. […] Mitomycin C is included for comparison purposes.

[2] = tested on: transplanted mouse leukemia P-338; details: for % T/C (median survival time) / MST (median survival time): IV, 5 daily injections; for AWC (average weight change at Day 5): mouse, in vivo, iv
Excerpt: as §1

[3] = Long term physical stability of aqueous solutions at room temperature; format: physicochemical; details: one molar equivalent of acid; period less than 2 years at room temperature
Excerpt: These unexpected physical instabilities include gelling, precipitation, cloudiness, and formation of liquid crystalline phases which render solutions of the crystalline salts unsuitable for practical use as, or for dilution with water to provide, injectable solutions.

[4] = IP, 4.8 mg/kg/inj, 5 daily injections

solubility in water (in words) (Solubility in water; added to water to form an aqueous injectable solution): not sufficiently soluble in water
SMILES: CCN(CC)CCN1C(=O)c2c(c3c4cccc(Cl)c4n([C@@H]4O[C@H](CO)[C@@H](OC)[C@H](O)[C@H]4O)c3c3[nH]c4c(Cl)cccc4c23)C1=O

SMILES: CO[C@@]12[C@H](COC(N)=O)C3=C(C(=O)C(C)=C(N)C3=O)N1C[C@@H]1N[C@@H]12 [Mitomycin C]
% T/C (median survival time) [1, 4]: 205%
MST (median survival time) [1, 4]: 20.5 days
AWC (average weight change at Day 5) ([1]; mouse, in vivo, ip, 4.8 mg/kg): -0.6 Grams
% T/C (median survival time) ([2]; 1.6 mg/kg/inj): 127%
MST (median survival time) ([2]; 1.6 mg/kg/inj): 9.5 days
% T/C (median survival time) ([2]; 4.8 mg/kg/inj): 160%
MST (median survival time) ([2]; 4.8 mg/kg/inj): 12.0 days
AWC (average weight change at Day 5) ([2]; 1.6 mg/kg): 0.4 Grams
AWC (average weight change at Day 5) ([2]; 4.8 mg/kg): -0.1 Grams

SMILES: CCN(CC)CCN1C(=O)c2c(c3c4cccc(Cl)c4n([C@@H]4O[C@H](CO)[C@@H](OC)[C@H](O)[C@H]4O)c3c3[nH]c4c(Cl)cccc4c23)C1=O [hydrochloride salt]
physical instability / shelf stability of solutions of acid addition salts (in words) [3]: do not form aqueous solutions which are sufficiently shelf stable

solubility (Solubility in water; water, salt formed from free base and a molar equivalent of acid, room temperature, read-out: solubility of acid addition salt in water): > 25 mg/mL
SMILES: CCN(CC)CCN1C(=O)c2c(c3c4cccc(Cl)c4n([C@@H]4O[C@H](CO)[C@@H](OC)[C@H](O)[C@H]4O)c3c3[nH]c4c(Cl)cccc4c23)C1=O [succinic]
